The text below walks through data of patent US12358948B2, “Neurotensinergic agonists and methods of using same preventing or treating pain” (priority 2019, dated 2025).

The target of one experiment is T1, hNTS1 receptor (Homo sapiens, UniProt P30989).
T1 construct: membranes prepared from them
Briefly: Competitive radioligand binding assay on the hNTS1 receptor. To be noted: displacement of 125I-[Tyr3]-NT, membranes of CHO-K1 cells expressing hNTS1; read-out: IC50 NTS1. A digest of the protocol:
(§1)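 IC50 values came from one-site competition curves against ¹²⁵I-[Tyr³]-NT after 60 min at 25 °C (pH 7.5 Tris, 0.2% BSA), with analogues at 10⁻¹¹–10⁻⁴ M and nonspecific binding set by 10⁻⁵ M NT(8-13). hNTS1 used 15 µg CHO-K1 membranes with […] tracer; hNTS2 used 50 µg 1321N1 membranes with […] tracer.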
(Displacement assays read how much labelled ligand stays bound in the presence of the test substance.)

For a further experiment, the target named is T2, hNTS2 receptor (Homo sapiens, UniProt O95665).
T2 construct: membranes prepared from them
T2 sequence (O95665 whole entry): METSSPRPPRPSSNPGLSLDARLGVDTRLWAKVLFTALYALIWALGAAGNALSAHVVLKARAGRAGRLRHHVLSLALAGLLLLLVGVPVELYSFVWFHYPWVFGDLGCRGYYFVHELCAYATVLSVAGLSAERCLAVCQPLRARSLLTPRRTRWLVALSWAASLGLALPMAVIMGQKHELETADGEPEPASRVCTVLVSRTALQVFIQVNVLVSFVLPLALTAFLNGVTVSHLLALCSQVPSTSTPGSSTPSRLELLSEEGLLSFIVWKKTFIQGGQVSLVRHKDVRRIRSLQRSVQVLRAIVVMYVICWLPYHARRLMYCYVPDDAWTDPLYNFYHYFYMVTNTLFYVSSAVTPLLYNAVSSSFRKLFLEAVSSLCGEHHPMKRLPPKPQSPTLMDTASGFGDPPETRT
In words: Competitive radioligand binding assay on the hNTS2 receptor. To be noted: for IC50: displacement of 125I-[Tyr3]-NT, membranes of 1321N1 cells expressing hNTS2, read-out: IC50 NTS2 (converted); for Selectivity: ratio IC50 for NTS1 : IC50 for NTS2. In short, it runs like this: as §1

As usually defined, the IC50 is the point on the concentration scale where inhibition reaches its midpoint.

*1 amine or outer side, *2 acyl side, *3 side chain or, on linkers, in order; H or OH if unused. Where a SMILES comes first, the peptide text is derived from it. Bridges are numbered along the chain shown (N, C = ends). [ ]: non-standard residue; d: D form. ξ: configuration not given here. ξαMeNle(6-ylidene) = CC(CCCC=[*:3])(N[*:1])C(=O)[*:2]; X2 = O=C([C@H](Cc1cc(F)c(F)cc1F)N[*:1])[*:2]; Phe(4-F) = N[C@@H](Cc1ccc(F)cc1)C(=O)O; Ala(cPent) = N[C@@H](CC1CCCC1)C(=O)O; hTyr = N[C@@H](CCc1ccc(O)cc1)C(=O)O; tBuAla = CC(C)(C)C[C@H](N)C(=O)O; 2Pal = N[C@@H](Cc1ccccn1)C(=O)O; Hpg = N[C@H](C(=O)O)c1ccc(O)cc1; dTic = O=C(O)[C@H]1Cc2ccccc2CN1; AllylGly = C=CC[C@H](N)C(=O)O; Cba = N[C@@H](CC1CCC1)C(=O)O; Chg = N[C@H](C(=O)O)C1CCCCC1; Pen = CC(C)(S)[C@H](N)C(=O)O; Dab = NCC[C@H](N)C(=O)O; Dap = NC[C@H](N)C(=O)O

T1 sequence (P30989 whole entry): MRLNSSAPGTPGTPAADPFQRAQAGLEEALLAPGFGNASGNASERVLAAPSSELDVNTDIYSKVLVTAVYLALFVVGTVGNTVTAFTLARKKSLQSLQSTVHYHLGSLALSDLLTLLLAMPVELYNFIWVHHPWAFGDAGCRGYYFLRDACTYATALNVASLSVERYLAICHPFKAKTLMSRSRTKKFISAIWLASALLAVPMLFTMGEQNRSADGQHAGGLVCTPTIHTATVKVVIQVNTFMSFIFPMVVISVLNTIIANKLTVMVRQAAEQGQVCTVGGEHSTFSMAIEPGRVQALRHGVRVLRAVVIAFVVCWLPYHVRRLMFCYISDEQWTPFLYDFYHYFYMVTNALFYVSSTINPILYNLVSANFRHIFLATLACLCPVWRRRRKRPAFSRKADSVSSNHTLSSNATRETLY

For `CC(C)C[C@H](NC(=O)[C@@H](NC(=O)[C@@H]1CC=CC[C@H](N)C(=O)N[C@@H](CCCCN)C(=O)N[C@@H](CCCCN)C(=O)N1)c1ccc(O)cc1)C(=O)O` [compound 125] (H-[AllylGly]KK[AllylGly][Hpg]L-OH; staple 1-4), the IC50 on hNTS1 receptor is more than 100 µM. In addition, on hNTS2 receptor, the IC50 is 1.8 µM and the Selectivity is listed as 56.
On to `CC(C)C[C@H](NC(=O)[C@H](Cc1ccc(O)cc1)NC(=O)C1(C)CCCC=CCCC(=O)N[C@@H](CCCCN)C(=O)N[C@@H](CCCCN)C(=O)N1)C(=O)O` (stereo partly drawn) [compound 132, c[K(Pentenoyl)KG(alpha-Me-(4-pentenyl))]YL], for which, at hNTS1 receptor, the IC50 is more than 100 µM. Besides, at hNTS2 receptor, the IC50 was 0.136 µM and the Selectivity was 733.
For `NCCCC[C@@H]1NC(=O)[C@H](CCCCN)NC(=O)[C@@H](N)CC=CC[C@@H](C(=O)N[C@@H](Cc2ccc(O)cc2)C(=O)N[C@@H](CC2CCC2)C(=O)O)NC1=O` [compound 66, c[G(All)KKG(All)]YA(cyclobutyl)] (H-[AllylGly]KK[AllylGly]Y[Cba]-OH; staple 1-4), the IC50 on hNTS1 receptor is more than 100 µM. At hNTS2 receptor, the IC50 was 0.0272 µM and the Selectivity was more than 3682.
Turning to `CC(C)(C)C[C@H](NC(=O)[C@H](Cc1ccc(O)cc1)NC(=O)[C@@H]1CC=CC[C@H](N)C(=O)N[C@@H](CCCCN)C(=O)N[C@@H](CCCCN)C(=O)N1)C(=O)O` [compound 49, c[G(All)KKG(All)]YNpg] (H-[AllylGly]KK[AllylGly]Y[tBuAla]-OH; staple 1-4), the IC50 on hNTS1 receptor was more than 100 µM. At hNTS2 receptor, the IC50 is 0.0444 µM and the Selectivity is listed as more than 2252.
In the case of `CC(C)C[C@H](NC(=O)[C@H](Cc1ccc(O)cc1)NC(=O)[C@@H]1CCNC(=O)CC[C@H](N)C(=O)N[C@@H](CCCCN)C(=O)N[C@@H](CCCCN)C(=O)N1)C(=O)O` [compound 104, c[EKKDab]YL] (H-EKK[Dab]YL-OH; lactam 1-4), the IC50 at hNTS1 receptor is more than 100 µM. Besides, on hNTS2 receptor, the IC50 was 16.5 µM and the Selectivity is more than 6.1.
As for `CC(C)C[C@H](NC(=O)[C@H](Cc1ccc(O)cc1)NC(=O)[C@@H]1CCC(=O)NC[C@H](N)C(=O)N[C@@H](CCCCN)C(=O)N[C@@H](CCCCN)C(=O)N1)C(=O)O` [compound 98, c[DapKKE]YL] (H-[Dap]KKEYL-OH; lactam 1-4), the IC50 on hNTS1 receptor is more than 100 µM. In addition, at hNTS2 receptor, the IC50 was 8.18 µM and the Selectivity was more than 12.2.
Regarding `CC(C)C[C@H](NC(=O)[C@H](Cc1ccccn1)NC(=O)[C@@H]1CC=CC[C@H](N)C(=O)N[C@@H](CCCCN)C(=O)N[C@@H](CCCCN)C(=O)N1)C(=O)O` [compound 165, c[G(All)KKG(All)]A(2-pyridyl)L] (H-[AllylGly]KK[AllylGly][2Pal]L-OH; staple 1-4), the IC50 at hNTS1 receptor was more than 100 µM. For the same compound, on hNTS2 receptor, the IC50 was 0.509 µM and the Selectivity came out at 20.
In the case of `CC(C)C[C@H](NC(=O)[C@H](Cc1ccc(O)cc1)NC(=O)C1(C)CCCC=CCCCC(C)(N)C(=O)N[C@@H](CCCCN)C(=O)N[C@@H](CCCCN)C(=O)N1)C(=O)O` (stereo partly drawn) [compound 93, c[G(alpha-Me-(4-Pentenyl))KKG*(alpha-Me(4-Pentenyl))]YL] (H-[ξαMeNle(6-ylidene)]KK[ξαMeNle(6-ylidene)]YL-OH; staple 1-4), on hNTS1 receptor, the IC50 is more than 100 µM. In addition, on hNTS2 receptor, the IC50 was 0.0344 µM and the Selectivity is more than 2907.
In the case of `NCCCC[C@@H]1NC(=O)[C@H](CCCCN)NC(=O)[C@@H](N)CC=CC[C@@H](C(=O)N[C@@H](Cc2ccc(O)cc2)C(=O)N[C@@H](Cc2ccccc2)C(=O)O)NC1=O` [compound 32, c[G(All)KKG(All)]YF] (H-[AllylGly]KK[AllylGly]YF-OH; staple 1-4), the IC50 at hNTS1 receptor is more than 100 µM. Further, on hNTS2 receptor, the 50% inhibitory concentration (IC50) was 0.453 µM and the Selectivity is more than 220.
Turning to `CC(C)C[C@H](NC(=O)[C@H](Cc1ccc(O)cc1)NC(=O)[C@@H]1CC=CC[C@H](N)C(=O)N[C@@H](CCC(=O)O)C(=O)N[C@@H](CCCCN)C(=O)N1)C(=O)O` [compound 88, c[G(All)EKG(All)]YL] (H-[AllylGly]EK[AllylGly]YL-OH; staple 1-4), the IC50 at hNTS1 receptor is more than 100 µM. At hNTS2 receptor, the IC50 is 10.6 µM and the Selectivity is listed as more than 9.4.
Regarding `CC(C)C[C@H](NC(=O)[C@H](Cc1ccc(O)cc1)NC(=O)[C@@H]1CC=CC[C@H](N)C(=O)N[C@@H](CCCCN)C(=O)N[C@@H](CCN)C(=O)N1)C(=O)O` [compound 52, c[G(All)KDabG(All)]YL] (H-[AllylGly]K[Dab][AllylGly]YL-OH; staple 1-4), on hNTS1 receptor, the IC50 is more than 100 µM. Also, at hNTS2 receptor, the IC50 was 0.244 µM and the Selectivity was more than 409.3.
For `CC(C)C[C@H](NC(=O)[C@H](Cc1ccc(F)cc1)NC(=O)[C@@H]1CC=CC[C@H](N)C(=O)N[C@@H](CCCCN)C(=O)N[C@@H](CCCCN)C(=O)N1)C(=O)O` [compound 77, c[G(All)KKG(All)]F(4-fluoro)L] (H-[AllylGly]KK[AllylGly][Phe(4-F)]L-OH; staple 1-4), the IC50 at hNTS1 receptor was more than 100 µM. Also, at hNTS2 receptor, the IC50 is 0.0956 µM and the Selectivity was more than 1046.
For the compound `NCCCC[C@@H]1NC(=O)CCC=CC[C@@H](C(=O)N[C@@H](Cc2ccc(Br)cc2)C(=O)N[C@@H](CC2CCCC2)C(=O)O)NC(=O)[C@H](CCCCN)NC1=O` [compound 134, cK([Pentenoyl)KG(All)]F(4-bromo)A (cyclopentyl)], the figures for the IC50 on hNTS1 receptor and on hNTS2 receptor were more than 100 µM and 0.0177 µM, respectively. In addition, the Selectivity on hNTS2 receptor is 5650.
Take `CC(C)C[C@H](NC(=O)[C@H]1Cc2ccccc2CN1C(=O)[C@@H]1CC=CC[C@H](N)C(=O)N[C@@H](CCCCN)C(=O)N[C@@H](CCCCN)C(=O)N1)C(=O)O` [compound 163, c[G(All)KKG(All)]G(Tic)L] (H-[AllylGly]KK[AllylGly][dTic]L-OH; staple 1-4): the IC50 at hNTS1 receptor is more than 100 µM. Further, at hNTS2 receptor, the IC50 is 10 µM and the Selectivity was 10.
Turning to `CC(C)C[C@H](NC(=O)[C@H](CC1CCCC1)NC(=O)[C@@H]1CC=CC[C@H](N)C(=O)N[C@@H](CCCCN)C(=O)N[C@@H](CCCCN)C(=O)N1)C(=O)O` [compound 142, c[G(All)KKG(All)]A (cyclopentyl)L] (H-[AllylGly]KK[AllylGly][Ala(cPent)]L-OH; staple 1-4), the IC50 on hNTS1 receptor is more than 100 µM; at hNTS2 receptor it was 0.204 µM. In addition, the Selectivity at hNTS2 receptor turned out to be 490.
In the same order, the values of `NCCCC[C@@H]1NC(=O)[C@H](CCCCN)NC(=O)[C@@H](N)CC=CC[C@@H](C(=O)N[C@@H](Cc2ccc(O)cc2)C(=O)N[C@@H](Cc2cc(F)c(F)cc2F)C(=O)O)NC1=O` [compound 63, c[G(All)KKG(All)]YF(2,4,5-trifluoro)] (H-[AllylGly]KK[AllylGly]Y[X2]-OH; staple 1-4) are more than 100 µM, 0.366 µM and more than 273.
With `CC(C)C[C@H](NC(=O)[C@H](Cc1ccc(O)cc1)NC(=O)[C@@H]1CC=CC[C@H](N)C(=O)N[C@@H](CCCCN)C(=O)N[C@@H](Cc2c[nH]cn2)C(=O)N1)C(=O)O` [compound 55, c[G(All)KHG(All)]YL] (H-[AllylGly]KH[AllylGly]YL-OH; staple 1-4), on hNTS1 receptor, the IC50 is more than 100 µM. Besides, at hNTS2 receptor, the half-maximal inhibitory concentration (IC50) is 0.57 µM and the Selectivity is recorded as more than 175.
For the compound `CC(C)C[C@H](NC(=O)[C@H](Cc1ccc(O)cc1)NC(=O)[C@@H]1CC=CC[C@H](N)C(=O)N[C@@H](CN)C(=O)N[C@@H](CCCCN)C(=O)N1)C(=O)O` [compound 81, c[G(All)DapKG(All)]YL] (H-[AllylGly][Dap]K[AllylGly]YL-OH; staple 1-4), the values for the IC50 on hNTS1 receptor and on hNTS2 receptor were more than 100 µM and 0.18 µM, respectively. For the same compound, the Selectivity at hNTS2 receptor was more than 557.2.
As for `CC(C)C[C@H](NC(=O)[C@H](CCc1ccc(O)cc1)NC(=O)[C@@H]1CC=CC[C@H](N)C(=O)N[C@@H](CCCCN)C(=O)N[C@@H](CCCCN)C(=O)N1)C(=O)O` [compound 126, c[G(All)KKG(All)]homoYL] (H-[AllylGly]KK[AllylGly][hTyr]L-OH; staple 1-4), the values for the half-maximal inhibitory concentration (IC50) at hNTS1 receptor and on hNTS2 receptor were more than 100 µM and 0.0817 µM, respectively. For the same compound, the Selectivity on hNTS2 receptor came out at 1224.
Regarding `CC(C)C[C@H](NC(=O)[C@H](Cc1ccc(O)cc1)NC(=O)[C@@H]1CSSC(C)(C)[C@H](N)C(=O)N[C@@H](CCCCN)C(=O)N[C@@H](CCCCN)C(=O)N1)C(=O)O` [compound 154, c[PenKKC]YL] (H-[Pen]KKCYL-OH; disulfide 1-4), the IC50 at hNTS1 receptor is more than 100 µM. In addition, on hNTS2 receptor, the IC50 was 1.2 µM and the Selectivity was found to be 81.
In the same order, the values of `NCCCC[C@@H]1NC(=O)[C@H](CCCCN)NC(=O)[C@@H](N)CC=CC[C@@H](C(=O)N[C@@H](Cc2ccc(O)cc2)C(=O)N[C@H](C(=O)O)C2CCCCC2)NC1=O` [compound 30, c[G(All)KKG(All)]YChG] (H-[AllylGly]KK[AllylGly]Y[Chg]-OH; staple 1-4) are more than 100 µM, 0.955 µM and more than 104.
In the case of `CC(C)C[C@H](NC(=O)[C@H](Cc1c[nH]c2ccccc12)NC(=O)[C@@H]1CC=CC[C@H](N)C(=O)N[C@@H](CCCCN)C(=O)N[C@@H](CCCCN)C(=O)N1)C(=O)O` [compound 16, c[G(All)KKG(All)]WL] (H-[AllylGly]KK[AllylGly]WL-OH; staple 1-4), the IC50 was more than 100 µM at hNTS1 receptor and 0.0536 µM at hNTS2 receptor. Also, the Selectivity on hNTS2 receptor was found to be 1865.
